# Test results published in publication PMC12621175, “Scaffold Fusion and SAR Transfer with a Chemical Language Model Generates Novel Liver X Receptor Modulators” (Journal of Medicinal Chemistry, 2025).
# Entries after “also recorded” stand apart in the source; their conditions may differ.
# Test system: HepG2 cells
# Experiment: lipolysis assay after steatosis induction with oleic and palmitic acid (Oil Red O)
# Format: cell-based
# Conditions: 30 μM, 72 h; HepG2 pretreated 24 h with oleic acid (66.7 μM) and palmitic acid (33.3 μM)
# Method: HepG2 cells were seeded in collagen-coated 96-well plates at a density of 10^4 cells per well and incubated for 24 h. For the lipolytic mode, the cells were pretreated for additional 24 h with 66.7 μM oleic acid and 33.3 μM palmitic acid in culture medium with 1% bovine serum albumin (BSA). The cells were then treated with DMSO (0.1%) alone or in combination with test compounds in the culture medium. After 72 h, the cells were washed with PBS (2 × 50 μL) and fixed with 10% formalin solution (50 μL) for 15 min. After removal of the fixative, the cells were washed with H2O (2 × 50 μL), followed by 50 μL of 60% iPrOH and incubated with 50 μL Oil Red O solution (0.3% in 60% iPrOH) for 10 min to stain neutral lipids. The cells were washed quickly with 50 μL of 60% iPrOH and 2 × 50 μL of PBS. Microscopic images were taken using a 40x objective on a BZ-X810 microscope (KEYENCE, Frankfurt, Germany). Images were analyzed using ImageJ software (v1.54) according to a literature method.
smiles,measurement,value
"CS(=O)(=O)c1cccc(-c2ccc(CN(Cc3cccc(C(F)(F)F)c3Cl)CC(c3ccccc3)c3ccccc3)cc2)c1 [Compound 3, N-(2-Chloro-3-[trifluoromethyl]benzyl)-N-([3′-{methylsulfonyl}-{1,1′-biphenyl}-4-yl]methyl)-2,2-diphenylethan-1-amine]","lipolytic, antisteatotic activity","displayed lipolytic, antisteatotic activity; also recorded: stimulated lipolysis"
